Values quoted from earlier work in article PMC5643527, “In vivo imaging of lung inflammation with neutrophil-specific ^68Ga nano-radiotracer” (Scientific Reports, 2017).

Key:
[1] = biological target: formyl peptide receptor 1 (FPR-1); conditions: antagonist of FPR-1; read-out: binding affinity (Kd)
Protocol: A particularly interesting compound is the peptide N-cinnamoyl-F-(D)L-F-(D)L-F (cFLFLF), an antagonist of formyl peptide receptor 1 (FPR-1). The very high binding affinity of cFLFLF (Kd = 2 nM) is the main reason for its use in neutrophil-specific probes for PET and optical fluorescence[7],[8],[10]. However, the high hydrophobicity of cFLFLF produces very poor target-to-background ratios. This serious limitation is the reason why to date the amount of radiotracer reaching the inflammation site is below 1% (expressed as the % of injected dose per mass of the organ)[7],[10]. || Inflammation is a central feature of many clinical conditions and can be broadly classified as acute or chronic. Acute inflammation typically occurs over a timescale of minutes to hours, whereas chronic inflammation can develop over several days to months. The predominant cell type in acute inflammation is the neutrophil, whereas chronic inflammation features a greater variety of cell types.

[2] = biological target: formyl peptide receptor 1 (Homo sapiens) (UniProt P21462)
Sequence of UniProt P21462 (P21462 whole entry): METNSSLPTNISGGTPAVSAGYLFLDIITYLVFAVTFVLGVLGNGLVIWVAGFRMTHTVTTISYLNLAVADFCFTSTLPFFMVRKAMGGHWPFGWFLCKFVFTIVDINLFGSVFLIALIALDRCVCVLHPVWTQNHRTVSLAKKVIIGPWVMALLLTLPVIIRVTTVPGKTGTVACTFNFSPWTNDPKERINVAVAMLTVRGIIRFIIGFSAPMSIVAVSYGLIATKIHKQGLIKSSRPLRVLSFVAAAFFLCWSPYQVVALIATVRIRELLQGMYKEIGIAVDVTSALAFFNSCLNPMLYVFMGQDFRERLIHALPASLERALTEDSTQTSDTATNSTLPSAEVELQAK

Kd [1] | Kd [2] | Substance
2 nM |  | N-cinnamoyl-F-(D)L-F-(D)L-F [cFLFLF]
 | 2 nM | cFLFLF (N-cinnamoyl-F-(D)L-F-(D)L-F)
